# According to patent publication US7786129B2, “Piperazine derivatives of dialkyl oxindoles” (Egis Gyogyszergyar Nyrt, priority 2004, dated 2010):
# Counter-ions that a name gives are not always drawn.
row,Compound,melting point [°C]
1,CCC1(CCCCCCN2CCN(c3cccc(Cl)c3)CC2)C(=O)Nc2ccccc21.Cl (centres unmarked),124 to 127
2,"CCC1(CCCCN2CCN(c3cccc(Cl)c3)CC2)C(=O)Nc2ccccc21 (centres unmarked) (as salt: HCl) (hydrate or solvate) [Example 60, 3-{4-[4-(3-Chlorophenyl)-piperazin-1-yl]-butyl}-3-ethyl-1,3-dihydro-2H-indol-2-one-H2O—HCl-isopropanol (1:1:1:1)]",109 to 111
3,"CCC1(CCCCN2CCN(c3cccc(Cl)c3)CC2)C(=O)Nc2ccc(F)cc21 (centres unmarked) (as salt: hydrochloride) [Example 85, 3-{4-[4-(3-Chlorophenyl)-piperazin-1-yl]-butyl}-3-ethyl-5-fluoro-1,3-dihydro-2H-indol-2-one mono-hydrochloride]",121 to 124
4,"CCC1(CCCCN2CCN(c3cccc(Cl)c3)CC2)C(=O)Nc2cc(F)c(Cl)cc21 (centres unmarked) (as salt: hydrochloride) [Example 89, 5-Chloro-3-{4-[4-(3-chlorophenyl)-piperazin-1-yl]-butyl}-3-ethyl-6-fluoro-1,3-dihydro-2H-indol-2-one monohydrochloride]",237 to 239
5,"CCC1(CCCCN2CCN(c3ccc(Cl)c(C(F)(F)F)c3)CC2)C(=O)Nc2ccccc21 (centres unmarked) (as salt: hydrochloride) [Example 96, 3-{4-[4-(4-Chloro-3-trifluoromethyl-phenyl)-piperazin-1-yl]-butyl}-3-ethyl-1,3-dihydro-2H-indol-2-one monohydrochloride]",204 to 206
6,"CCC1(CCCCN2CCN(c3cccc(Cl)c3)CC2)C(=O)Nc2ccc(Br)cc21 (centres unmarked) (as salt: oxalate) [Example 61, 5-Bromo-3-{4-[4-(3-chlorophenyl)-piperazin-1-yl]-butyl}-3-ethyl-1,3-dihydro-2H-indol-2-one monooxalate]",200 to 202
7,"CCC1(CCCCN2CCN(c3ccccc3)CC2)C(=O)Nc2ccccc21 (centres unmarked) (as salt: oxalate) [Example 68, 3-[4-(4-Phenylpiperazin-1-yl)-butyl]-3-ethyl-1,3-dihydro-2H-indol-2-one monooxalate]",121 to 123
8,"CCC1(CCCCN2CCN(c3cccc(Cl)c3)CC2)C(=O)Nc2ccc(S(N)(=O)=O)cc21 (centres unmarked) (as salt: oxalate) [Example 72, 3-{4-[4-(3-Chlorophenyl)-piperazin-1-yl]-butyl}-3-ethyl-1,3-dihydro-2H-indol-2-one 5-sulfonamide monooxalate]",188 to 190
9,"CCC1(CCCN2CCN(c3ccccn3)CC2)C(=O)Nc2ccccc21 (centres unmarked) [Example 58, 3-Ethyl-3-[3-(4-pyridin-2-yl-piperazin-1-yl)-propyl]-1,3-dihydro-2H-indol-2-one]",122 to 124
10,"CCC1(CCCCN2CCN(c3ccccn3)CC2)C(=O)Nc2ccc(Cl)cc21 (centres unmarked) [Example 66, 5-Chloro-3-ethyl-3-[4-(4-pyridin-2-yl-piperazin-1-yl)-butyl]-1,3-dihydro-2H-indol-2-one]",154 to 156
11,"CCC1(CCCCN2CCN(c3cccc(Cl)c3)CC2)C(=O)Nc2ccc(Cl)cc21 (centres unmarked) [Example 67, 5-Chloro-3-{4-[4-(3-chlorophenyl)-piperazin-1-yl]-butyl}-3-ethyl-1,3-dihydro-2H-indol-2-one]",139 to 142
12,"CCC1(CCCCN2CCN(c3ccc(Cl)cc3)CC2)C(=O)Nc2ccc(C)cc21 (centres unmarked) [Example 73, 3-{4-[4-(4-Chlorophenyl)-piperazin-1-yl]-butyl}-3-ethyl-5-methyl-1,3-dihydro-2H-indol-2-one]",175 to 177
13,"CCC1(CCCCN2CCN(c3ccc(OC)cc3)CC2)C(=O)Nc2ccccc21 (centres unmarked) [Example 74, 3-Ethyl-3-{4-[4-(4-methoxyphenyl)-piperazin-1-yl]-butyl}-1,3-dihydro-2H-indol-2-one]",109 to 110
14,"CCC1(CCCCN2CCN(c3cccc(Cl)c3)CC2)C(=O)Nc2cc(F)ccc21 (centres unmarked) [Example 77, 3-{4-[4-(3-Chlorophenyl)-piperazin-1-yl]-butyl}-3-ethyl-6-fluoro-1,3-dihydro-2H-indol-2-one]",116 to 117
15,"CCC1(CCCCN2CCN(c3ccccn3)CC2)C(=O)Nc2ccc(C)cc21 (centres unmarked) [Example 80, 3-Ethyl-5-methyl-3-[4-(4-pyridin-2-yl-piperazin-1-yl)-butyl]-1,3-dihydro-2H-indol-2-one]",168 to 170
16,"CCC1(CCCCN2CCN(c3ccccc3Cl)CC2)C(=O)Nc2ccccc21 (centres unmarked) [Example 81, 3-{4-[4-(2-Chlorophenyl)-piperazin-1-yl]-butyl}-3-ethyl-1,3-dihydro-2H-indol-2-one]",145 to 148
17,"CCC1(CCCCN2CCN(c3cccc4c3OCCO4)CC2)C(=O)Nc2cc(F)ccc21 (centres unmarked) [Example 83, 3-{4-[4-(2,3-Dihydrobenzo[1,4]dioxin-5-yl)-piperazin-1-yl]-butyl}-3-ethyl-6-fluoro-1,3-dihydro-2H-indol-2-one]",146 to 147
18,"CCC1(CCCCN2CCN(c3ccccn3)CC2)C(=O)Nc2ccc(F)cc21 (centres unmarked) [Example 84, 3-Ethyl-5-fluoro-3-[4-(4-pyridin-2-yl-piperazin-1-yl)-butyl]-1,3-dihydro-2H-indol-2-one]",144 to 147

row,Compound,melting point [°C]
1,"CCC1(CCCCN2CCN(c3cccc(OC)c3)CC2)C(=O)Nc2ccccc21 (centres unmarked) [Example 91, 3-Ethyl-3-{4-[4-(3-methoxyphenyl)-piperazin-1-yl]-butyl}-1,3-dihydro-2H-indol-2-one]",123 to 125
2,"CCC1(CCCCCN2CCN(c3ccccn3)CC2)C(=O)Nc2ccccc21 (centres unmarked) [Example 93, 3-Ethyl-3-[5-(4-pyridin-2-yl-piperazin-1-yl)-pentyl]-1,3-dihydro-2H-indol-2-one]",127 to 128
3,"CCC1(CCCCN2CCN(c3ccc(C)c(Cl)c3)CC2)C(=O)Nc2ccccc21 (centres unmarked) [Example 99, 3-{4-[4-(3-Chloro-4-methylphenyl)-piperazin-1-yl]-butyl}-3-ethyl-1,3-dihydro-2H-indol-2-one]",103 to 106
4,"CCC1(CCCCN2CCN(c3ccc(F)c(Cl)c3)CC2)C(=O)Nc2ccccc21 (centres unmarked) [Example 100, 3-{4-[4-(3-Chloro-4-fluorophenyl)-piperazin-1-yl]-butyl}-3-ethyl-1,3-dihydro-2H-indol-2-one]",121 to 124
5,"CCC1(CCCN2CCN(c3cccc(Cl)c3)CC2)C(=O)Nc2ccccc21 (centres unmarked) [Example 108, 3-{3-[4-(3-Chlorophenyl)-piperazin-1-yl]-propyl}-3-ethyl-1,3-dihydro-2H-indol-2-one]",119 to 120
6,"CCC1(CCCCN2CCN(c3ccc(F)cc3)CC2)C(=O)Nc2ccc(F)cc21 (centres unmarked) [Example 111, 3-Ethyl-5-fluoro-3-{4-[4-(4-fluorophenyl)-piperazine-1-yl]-butyl}-1,3-dihydro-2H-indol-2-one]",119 to 122
7,"CCC1(CCCCN2CCN(c3ccc(F)cc3)CC2)C(=O)Nc2ccc(C)cc21 (centres unmarked) [Example 113, 3-Ethyl-3-{4-[4-(4-fluorophenyl)-piperazin-1-yl]-butyl}-5-methyl-1,3-dihydro-2H-indol-2-one]",146 to 149
8,"CCC1(CCCCN2CCN(c3cc(Cl)cc(Cl)c3)CC2)C(=O)Nc2ccc(F)cc21 (centres unmarked) [Example 114, 3-{4-[4-(3,5-dichlorophenyl)-piperazine-1-yl]-butyl}-3-ethyl-5-fluoro-1,3-dihydro-2H-indol-2-one]",122 to 124
9,"CCC1(CCCCN2CCN(c3ccc(Cl)c(Cl)c3)CC2)C(=O)Nc2ccc(F)cc21 (centres unmarked) [Example 115, 3-{4-[4-(3,4-dichlorophenyl)-piperazin-1-yl]-butyl}-3-ethyl-5-fluoro-1,3-dihydro-2H-indol-2-one]",152 to 155
10,"CCC1(CCCCN2CCN(c3ccc(F)cc3)CC2)C(=O)Nc2c(Cl)cc(F)cc21 (centres unmarked) [Example 119, 7-chloro-3-ethyl-5-fluoro-3-{4-[4-(4-fluorophenyl)-piperazin-1-yl]-butyl}-1,3-dihydro-2H-indol-2-one]",161 to 162
11,"CCC1(CCCCN2CCN(c3ccc(Cl)cc3)CC2)C(=O)Nc2ccc(Cl)cc21 (centres unmarked) [Example 121, 5-chloro-3-{4-[4-(4-chlorophenyl)-piperazin-1-yl]-butyl}-3-ethyl-1,3-dihydro-indol-2-one]",186 to 188
12,"CCC1(CCCCN2CCN(c3ccc(Cl)cc3)CC2)C(=O)Nc2cc(F)c(Cl)cc21 (centres unmarked) [Example 122, 5-chloro-3-{4-[4-(4-chlorophenyl)-piperazin-1-yl]-butyl}-3-ethyl-6-fluoro-1,3-dihydro-2H-indol-2-one]",194 to 197
13,"CCC1(CCCCCN2CCN(c3ccc(Cl)cc3)CC2)C(=O)Nc2ccccc21 (centres unmarked) [Example 123, 3-{5-[4-(4-chlorophenyl)-piperazin-1-yl]-pentyl}-3-ethyl-1,3-dihydro-2H-indol-2-one]",142 to 143
14,"CCC1(CCCCN2CCN(c3ccc(Cl)c(Cl)c3)CC2)C(=O)Nc2c(Cl)cc(Cl)cc21 (centres unmarked) [Example 124, 5,7-dichloro-3-{4-[4-(3,4-dichlorophenyl)-piperazin-1-yl]-butyl}-3-ethyl-1,3-dihydro-2H-indol-2-one]",164 to 165
15,"CCC1(CCCCCN2CCN(c3ccc(Cl)cc3)CC2)C(=O)Nc2c(Cl)cc(Cl)cc21 (centres unmarked) [Example 125, 5,7-Dichloro-3-{5-[4-(4-chlorophenyl)-piperazin-1-yl]-pentyl}-3-ethyl-1,3-dihydro-2H-indol-2-one]",145 to 148
16,"CCC1(CCCCN2CCN(c3ccc(F)cc3Cl)CC2)C(=O)Nc2ccccc21 (centres unmarked) [Example 126, 3-{4-[4-(2-chloro-4-fluorophenyl)-piperazin-1-yl]-butyl}-3-ethyl-1,3-dihydro-2H-indol-2-one]",125 to 126
17,"CC1(CCCCN2CCN(c3ccc(Cl)cc3)CC2)C(=O)Nc2c(Cl)cc(Cl)cc21 (centres unmarked) [Example 128, 5,7-dichloro-3-{4-[4-(4-chlorophenyl)-piperazin-1-yl]-butyl}-3-methyl-1,3-dihydro-2H-indol-2-one]",168 to 170
